Consider seven molecules from ChEMBL document CHEMBL1148419, “Novel P4 truncated tripeptidyl alpha-ketoamides as HCV protease inhibitors” (Bioorg Med Chem Lett, 2004).

Molecules are shown by their SMILES. The source made the active and inactive calls. The rule behind the calls is not given here.

One experiment deals with Hepatitis C virus NS3 protease (Hepatitis C virus). Kind of experiment: Inhibitory activity against Protease using replicon assay in rats at 50 uM concentration. The note with it: Rattus norvegicus. In general terms: A replicon is a self-replicating genome or part of one, used to study replication in cells.
In general, inhibition refers to the share of the control response that was lost under treatment. Molecule `CCCC(NC(=O)[C@@H]1[C@H]2CCC(F)(F)[C@H]2CN1C(=O)[C@@H](NC(=O)OC(C)C)C(C)(C)C)C(=O)C(=O)N[C@@H](C)c1ccccc1` (some centres not stated) gave an inhibition of 51%.

As for `CCCC(NC(=O)[C@@H]1[C@H]2CCC[C@H]2CN1C(=O)[C@@H](NC(=O)OC(C)C)C(C)C)C(=O)C(=O)N[C@@H](C)c1ccccc1` (some centres not stated), the inhibition came to 7%.

Turning to `CCCC(NC(=O)[C@@H]1[C@H]2CCC(F)(F)[C@H]2CN1C(=O)[C@@H](NC(=O)OC(C)C)C(C)C)C(=O)C(=O)N[C@@H](C)c1ccccc1` (some centres not stated), the inhibition was determined as 22%.

Turning to `CCCC(NC(=O)[C@@H]1[C@H]2CCC(F)(F)[C@H]2CN1C(=O)[C@@H](NC(=O)[C@H](O)C(C)C)C(C)C)C(=O)C(=O)NC1CC1` (some centres not stated), the inhibition entry was “inactive”.

For the next experiment the test system is unchanged. The experiment in a line: Inhibitory activity against Protease using replicon assay in rats at 50 uM concentration; Not active. The note with it: Rattus norvegicus.
Turning to `CCCC(NC(=O)[C@@H]1[C@H]2CCC[C@H]2CN1C(=O)[C@@H](NC(=O)OC(C)C)C(C)(C)C)C(=O)C(=O)Nc1ccccc1` (some centres not stated), the inhibition result was “inactive”.

Take `CCCC(NC(=O)[C@@H]1[C@H]2CCC[C@H]2CN1C(=O)[C@@H](NC(=O)[C@H](O)C(C)C)C(C)C)C(=O)C(=O)NC1CC1` (some centres not stated): the inhibition result was “inactive”.

As to `CCCC(NC(=O)[C@@H]1[C@H]2CCC[C@H]2CN1C(=O)[C@@H](NC(=O)[C@H](O)C(C)C)C(C)C)C(=O)C(=O)Nc1ccccc1` (some centres not stated), the inhibition result was “inactive”.
